# Target: P. falciparum apicoplast DNA polymerase (Pf-apPOL) (Plasmodium falciparum, UniProt Q8ILY1)
# Assay: Fluorescence-based high-throughput DNA polymerase assay (molecular beacon), primary screen and dose-response
# Type: biochemical
# Conditions: for DNA Pol: 90 min, 10 µM; for IC50: supplemental file 2, sheet IC50 nontoxic compounds, Pf-apPOL
# Method: The HT assay employs a molecular beacon, a stem-loop DNA template with a Cy3 dye and the Black Hole Quencher on the 3′ and 5′ ends of the DNA, respectively. Pf-apPOL concentration is based on a calculated absorptivity of ε280 = 56750 M^−1 cm^−1. Reactions were carried out at 25 °C, using Corning 3575 […] (well-volume, 20 µL). Assays testing for compound inhibition composed of reaction buffer (pH 7.9 in 50 mM potassium acetate, 20 mM Tris-acetate and 10 mM magnesium acetate), Pf-apPOL (20 nM), DNA substrate (20 nM), dNTPs (6 µM), and compound (10 µM in DMSO). The DNA and nucleotide substrates (dNTPs) were at concentrations of 20 nM and 6 µM, respectively, in the assay. Pf-apPOL was incubated in the reaction buffer with dNTPs and the compound of interest (10 µM, in the assay) at 25 °C for 10 min. The DNA substrate was then added and the reaction was allowed to proceed for 90 min at 25 °C.
# Each assay plate contained 16 negative controls (no Pf-apPOL, DMSO present) and 16 positive controls (Pf-apPOL present, no DMSO). The fluorescence of each well was determined using a BioTek Synergy Neo fluorescence plate reader using excitation and emission wavelengths of 555 and 570 nm, respectively.
# In the above, Min is the average of fluorescence emission of the negative controls (substrate only), Max the average fluorescence emission from the positive controls (enzyme + substrate), and Test the emission from the assays in the presence of compounds (enzyme + compound + substrates). […] […] The IC50 of each compound was determined using Equation (2): (2) IC50= Vmax/(1+ (I/IC50)^n)
# In the above, n measures cooperativity, with n > 1 indicating synergistic binding of more than a single molecule of the compound.
# To identify apPOL inhibitors we utilised our previously developed high-throughput DNA polymerase assay. The HT assay is based on a molecular beacon DNA template that forms a stem-loop with a Cy3 dye and the Black Hole Quencher on the 3′ and 5′ ends of the DNA, respectively. DNA polymerase activity extends an annealed primer through the stem region, displacing the fluorophore from the quencher, thereby increasing its fluorescence (Figure 1(A)). The assay accurately recapitulates the kinetic behaviour of apPOL, as measured through more conventional low-throughput gel-based assays. The Z′ factor for the assay described here was 0.9 across all plates (data not shown).
# Figure 1. High-throughput screening. (A) The fluorescent-based DNA polymerase assay used to screen the compound libraries. The DNA template strand is a hairpin loop with a primer annealed to the loop. The 3’ end of the primer is 11 bases away from the 6 bp duplex. Strand displacement activity of the DNA polymerase separates the Cy3 dye from the Black hole quencher leading to an increase in fluorescent signal. (B) The high-throughput assay workflow. The DNA polymerase is incubated with […] compound for 10 min prior to addition of the hairpin substrate. The reaction is quenched at 3 different time points and the fluorescent signal is measured and % inhibition is determined using the provided equation.
# [1] = primary screen value by plate and well
# [2] = primary screen value of the 186 hits, unit not given
# P. falciparum apicoplast DNA polymerase (Pf-apPOL), sequence (Q8ILY1 entry or part of it): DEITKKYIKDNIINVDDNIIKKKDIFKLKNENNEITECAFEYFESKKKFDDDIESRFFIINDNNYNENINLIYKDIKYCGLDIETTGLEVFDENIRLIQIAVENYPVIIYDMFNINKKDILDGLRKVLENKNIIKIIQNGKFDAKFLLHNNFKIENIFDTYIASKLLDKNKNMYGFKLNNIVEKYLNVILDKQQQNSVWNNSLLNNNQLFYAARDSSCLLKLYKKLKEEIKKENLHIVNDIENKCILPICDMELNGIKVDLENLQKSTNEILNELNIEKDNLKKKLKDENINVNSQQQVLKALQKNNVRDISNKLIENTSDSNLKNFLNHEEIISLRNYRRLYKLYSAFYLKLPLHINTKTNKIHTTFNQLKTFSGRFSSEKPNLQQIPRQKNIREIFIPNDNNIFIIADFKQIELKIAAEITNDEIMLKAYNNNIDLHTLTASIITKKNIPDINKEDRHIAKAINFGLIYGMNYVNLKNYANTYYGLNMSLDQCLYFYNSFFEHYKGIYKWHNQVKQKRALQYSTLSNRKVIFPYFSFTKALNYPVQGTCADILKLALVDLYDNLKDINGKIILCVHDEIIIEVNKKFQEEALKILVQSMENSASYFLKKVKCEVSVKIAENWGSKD
smiles,measurement,setting,value
"O=C(O)c1cccc(N2N=C(C(F)(F)F)/C(=C/c3ccc(-c4ccccc4[N+](=O)[O-])o3)C2=O)c1 [Molecule 100, O=C1N(N=C(/C/1=C/c1ccc(o1)c1ccccc1N(=O)=O)C(F)(F)F)c1cccc(c1)C(=O)O]",% inhibition Apo pol 10',"DRC-1, concentration 2.5",26.1484%
same,% inhibition Apo pol 10',"DRC-1, concentration 5",12.0969%
same,% inhibition Apo pol 10',"DRC-1, concentration 10",67.0777%
same,% inhibition Apo pol 10',"DRC-1, concentration 20",85.2952%
same,% inhibition Apo pol 10',"DRC-1, concentration 40",91.4411%
same,% inhibition Apo pol 10',"DRC-1, concentration 80",91.0692%
same,% inhibition Apol 90',"DRC-1, concentration 2.5",19.5679%
same,% inhibition Apol 90',"DRC-1, concentration 5",4.613%
same,% inhibition Apol 90',"DRC-1, concentration 10",58.3032%
same,% inhibition Apol 90',"DRC-1, concentration 20",83.4364%
same,% inhibition Apol 90',"DRC-1, concentration 40",89.1977%
same,% inhibition Apol 90',"DRC-1, concentration 80",89.0036%
same,% inhibition apPOL 180',"DRC-1, concentration 2.5",13.4923%
same,% inhibition apPOL 180',"DRC-1, concentration 5",1.454%
same,% inhibition apPOL 180',"DRC-1, concentration 10",45.1585%
same,% inhibition apPOL 180',"DRC-1, concentration 20",77.5112%
same,% inhibition apPOL 180',"DRC-1, concentration 40",84.5547%
same,% inhibition apPOL 180',"DRC-1, concentration 80",85.8771%
same,% inhibition Apo pol 5',"DRC-2, concentration 2.5",20%
same,% inhibition Apo pol 5',"DRC-2, concentration 5",27%
same,% inhibition Apo pol 5',"DRC-2, concentration 10",47%
same,% inhibition Apo pol 5',"DRC-2, concentration 20",55%
same,% inhibition Apo pol 5',"DRC-2, concentration 40",63%
same,% inhibition Apo pol 5',"DRC-2, concentration 80",64%
same,% inhibition Apol 40',"DRC-2, concentration 2.5",23%
same,% inhibition Apol 40',"DRC-2, concentration 5",30%
same,% inhibition Apol 40',"DRC-2, concentration 10",51%
same,% inhibition Apol 40',"DRC-2, concentration 20",65%
same,% inhibition Apol 40',"DRC-2, concentration 40",76%
same,% inhibition Apol 40',"DRC-2, concentration 80",78%
same,% inhibition ApPOL 90',"DRC-2, concentration 2.5",21%
same,% inhibition ApPOL 90',"DRC-2, concentration 5",29%
same,% inhibition ApPOL 90',"DRC-2, concentration 10",51%
same,% inhibition ApPOL 90',"DRC-2, concentration 20",65%
same,% inhibition ApPOL 90',"DRC-2, concentration 40",77%
same,% inhibition ApPOL 90',"DRC-2, concentration 80",81%
same,% inhibition apPOL 180',"DRC-2, concentration 2.5",14%
same,% inhibition apPOL 180',"DRC-2, concentration 5",20%
same,% inhibition apPOL 180',"DRC-2, concentration 10",43%
same,% inhibition apPOL 180',"DRC-2, concentration 20",60%
same,% inhibition apPOL 180',"DRC-2, concentration 40",77%
same,% inhibition apPOL 180',"DRC-2, concentration 80",84%
same,% inhibition Apo pol 5',"conc. 2.5, DRC-2",20%
same,% inhibition apPOL 180',"conc. 5, DRC-2",20%
same,% inhibition Apol 40',"conc. 10, DRC-2",51%
same,% inhibition ApPOL 90',"conc. 10, DRC-2",51%
same,% inhibition Apol 40',"conc. 20, DRC-2",65%
same,% inhibition ApPOL 90',"conc. 20, DRC-2",65%
same,% inhibition ApPOL 90',"conc. 40, DRC-2",77%
same,% inhibition apPOL 180',"conc. 40, DRC-2",77%
same,DNA Pol,[1],55
same,DNA Pol,[2],55
CCOc1ccc(/C=C2\N=C(c3cc([N+](=O)[O-])cc([N+](=O)[O-])c3)OC2=O)cc1 [Molecule 97],IC50,,4.47 µM
Cc1cccc2c(C(=O)NC(C)C)cc(N(C)C)nc12 [Molecule 47],IC50,,15.9 µM
"COc1ccc(NC(=O)Cn2ccc3c(=O)[nH]ccc32)cc1Cl [Molecule 10, COc1ccc(cc1Cl)NC(=O)Cn1ccc2c1cc[nH]c2=O]",% inhibition Apo pol 10',"DRC-1, concentration 2.5",12.1098%
same,% inhibition Apo pol 10',"DRC-1, concentration 5",41.0198%
same,% inhibition Apo pol 10',"DRC-1, concentration 10",64.5653%
same,% inhibition Apo pol 10',"DRC-1, concentration 20",78.092%
same,% inhibition Apo pol 10',"DRC-1, concentration 40",83.862%
same,% inhibition Apo pol 10',"DRC-1, concentration 80",74.6013%
same,% inhibition Apol 90',"DRC-1, concentration 2.5",1.658%
same,% inhibition Apol 90',"DRC-1, concentration 5",26.4531%
same,% inhibition Apol 90',"DRC-1, concentration 10",48.8726%
same,% inhibition Apol 90',"DRC-1, concentration 20",69.5261%
same,% inhibition Apol 90',"DRC-1, concentration 40",86.3942%
same,% inhibition Apol 90',"DRC-1, concentration 80",83.0123%
same,% inhibition apPOL 180',"DRC-1, concentration 2.5",-4.328%
same,% inhibition apPOL 180',"DRC-1, concentration 5",12.6648%
same,% inhibition apPOL 180',"DRC-1, concentration 10",30.7094%
same,% inhibition apPOL 180',"DRC-1, concentration 20",56.2759%
same,% inhibition apPOL 180',"DRC-1, concentration 40",85.5137%
same,% inhibition apPOL 180',"DRC-1, concentration 80",84.9384%
same,% inhibition Apo pol 5',"DRC-2, concentration 2.5",22%
same,% inhibition Apo pol 5',"DRC-2, concentration 5",37%
same,% inhibition Apo pol 5',"DRC-2, concentration 10",48%
same,% inhibition Apo pol 5',"DRC-2, concentration 20",44%
same,% inhibition Apo pol 5',"DRC-2, concentration 40",37%
same,% inhibition Apo pol 5',"DRC-2, concentration 80",19%
same,% inhibition Apol 40',"DRC-2, concentration 2.5",23%
same,% inhibition Apol 40',"DRC-2, concentration 5",47%
same,% inhibition Apol 40',"DRC-2, concentration 10",64%
same,% inhibition Apol 40',"DRC-2, concentration 20",65%
same,% inhibition Apol 40',"DRC-2, concentration 40",62%
same,% inhibition Apol 40',"DRC-2, concentration 80",51%
same,% inhibition ApPOL 90',"DRC-2, concentration 2.5",20%
same,% inhibition ApPOL 90',"DRC-2, concentration 5",45%
same,% inhibition ApPOL 90',"DRC-2, concentration 10",66%
same,% inhibition ApPOL 90',"DRC-2, concentration 20",69%
same,% inhibition ApPOL 90',"DRC-2, concentration 40",68%
same,% inhibition ApPOL 90',"DRC-2, concentration 80",59%
same,% inhibition apPOL 180',"DRC-2, concentration 2.5",8%
same,% inhibition apPOL 180',"DRC-2, concentration 5",34%
same,% inhibition apPOL 180',"DRC-2, concentration 10",62%
same,% inhibition apPOL 180',"DRC-2, concentration 20",70%
same,% inhibition apPOL 180',"DRC-2, concentration 40",73%
same,% inhibition apPOL 180',"DRC-2, concentration 80",67%
same,% inhibition Apo pol 5',"conc. 5, DRC-2",37%
same,% inhibition apPOL 180',"conc. 10, DRC-2",62%
same,% inhibition Apo pol 5',"conc. 40, DRC-2",37%
same,% inhibition Apol 40',"conc. 40, DRC-2",62%
same,DNA Pol,[1],78
same,DNA Pol,[2],78
